PMC4306947, “Synthesis and Antiproliferative Activity of Thiazolyl-bis-pyrrolo[2,3-b]pyridines and Indolyl-thiazolyl-pyrrolo[2,3-c]pyridines, Nortopsentin Analogues” (Marine Drugs, 2015)

Tests used:
[1] = system: MALME-3M; test: NCI-60 in vitro tumor cell screen, MALME-3M; format: cell-based; conditions: Homo sapiens, Melanoma
Method: (§1) All the synthesized thiazoles 1a–l, 2a–j, 3a–f and 4a–f were evaluated by the National Cancer Institute (Bethesda MD) for cytotoxicity against the NCI-60 cell line panel using standard protocols. Initially, all derivatives were tested at a single dose (10^−5 M) on the full panel of approximately 60 human tumor cell lines derived from 9 human cancer cell types, that have been grouped in disease sub-panels including leukemia, non-small-cell lung, colon, central nervous system (CNS), melanoma, ovarian, renal, prostate and breast cancers (data not shown). Compounds 1k and 4c were further selected for full evaluation at five concentration levels (10^−4–10^−8 M).
(§2) The antitumor activity of compounds 1k and 4c was given by three parameters for each cell line: GI50 (GI50 is the molar concentration of the compound that inhibits 50% net cell growth), TGI (TGI is the molar concentration of the compound leading to total inhibition of net cell growth), and LC50 (LC50 is the molar concentration of the compound that induces 50% net cell death). The average values of mean graph midpoint (MG_MID) were calculated for each of these parameters.

[2] = system: HCC-2998; test: NCI-60 in vitro tumor cell screen, HCC-2998; format: cell-based; conditions: Homo sapiens; HCC-2998, Colon Cancer
Method: as §1, §2

[3] = system: SNB-75; test: NCI-60 in vitro tumor cell screen, SNB-75; format: cell-based; conditions: Homo sapiens; SNB-75, CNS Cancer
Method: as §1, §2

[4] = system: TK-10; test: NCI-60 in vitro tumor cell screen, TK-10; format: cell-based; conditions: Homo sapiens; TK-10, Renal Cancer
Method: as §1, §2

[5] = system: SK-MEL-2; test: NCI-60 in vitro tumor cell screen, SK-MEL-2; format: cell-based; conditions: Homo sapiens; SK-MEL-2, Melanoma
Method: as §1, §2

[6] = system: NCI-H322M; test: NCI-60 in vitro tumor cell screen, NCI-H322M; format: cell-based; conditions: Homo sapiens, Non-Small Cell Lung Cancer
Method: as §1, §2

[7] = system: MCF7; test: NCI-60 in vitro tumor cell screen, MCF7; format: cell-based; conditions: Homo sapiens; MCF7, Breast Cancer
Method: as §1, §2

[8] = system: UACC-257; test: NCI-60 in vitro tumor cell screen, UACC-257; format: cell-based; conditions: Homo sapiens; UACC-257, Melanoma
Method: as §1, §2

[9] = system: SK-MEL-28; test: NCI-60 in vitro tumor cell screen, SK-MEL-28; format: cell-based; conditions: Homo sapiens; SK-MEL-28, Melanoma
Method: as §1, §2

[10] = system: COLO-205; test: NCI-60 in vitro tumor cell screen, COLO-205; format: cell-based; conditions: Homo sapiens; COLO-205, Colon Cancer
Method: as §1, §2

[11] = system: HCT-116 cells; test: Acidic vesicular organelles by acridine orange staining (FACS); format: cell-based, human; conditions: 24 h
Method: AO is a fluorescent molecule used either to identify apoptotic cell death or autophagy. It can interact with DNA emitting green fluorescence or accumulate in acidic organelles where it is protonated forming aggregates that emit bright red fluorescence. Briefly, cells were stained with a AO solution (5 μg/mL) for 15 min. Then they were washed, re-suspended in PBS and subjected to FACS analysis. The green (510–530 nm, FL-1) and red (650 nm, FL-3) fluorescence of AO with blue (488 nm) excitation was determined over 10,000 events.

[12] = system: SR; test: NCI-60 in vitro tumor cell screen, SR; format: cell-based; conditions: Homo sapiens, Leukemia
Method: as §1, §2

[13] = system: UO-31; test: NCI-60 in vitro tumor cell screen, UO-31; format: cell-based; conditions: Homo sapiens; UO-31, Renal Cancer
Method: as §1, §2

[14] = system: SN12C; test: NCI-60 in vitro tumor cell screen, SN12C; format: cell-based; conditions: Homo sapiens, Renal Cancer
Method: as §1, §2

SMILES | GI50 [1] [nM] | GI50 [2] [nM] | GI50 [3] [nM] | GI50 [4] [nM] | GI50 [5] [nM] | GI50 [6] [nM] | GI50 [7] [nM] | GI50 [8] [nM] | GI50 [9] [nM] | GI50 [10] [nM] | increase of the bright red to green fluorescence intensity ratio of acridine orange ([11]; concentration GI30, vs control) [fold] | percent of cells with AVO with respect to control ([11]; highest drug concentration) | GI50 [12] [nM] | GI50 [13] [nM] | GI50 [14] [nM]
Cn1cc(-c2csc(-c3c[nH]c4ncccc34)n2)c2cc(Br)cnc21 [Compound 1k, 5-Bromo-1-methyl-3-[2-(1H-pyrrolo[2,3-b]pyridin-3-yl)-1,3-thiazol-4-yl]-1H-pyrrolo[2,3-b]pyridine] | 3010 | > 100000 | 2180 | 3770 | 19800 | > 100000 | 6770 | – | – | – | – | – | – | – | –
Clc1nccc2c(-c3csc(-c4c[nH]c5ccc(Br)cc45)n3)c[nH]c12 [Compound 4c, 3-[2-(5-Bromo-1H-indol-3-yl)-1,3-thiazol-4-yl]-7-chloro-1H-pyrrolo[2,3-c]pyridine] | – | 2220 | 2370 | 4160 | 4090 | 3540 | 2200 | 2680 | 1850 | 1800 | 10 | did not significantly modify | 1270 | 930 | 3350
